What was measured:
[1] = Liver Microsome Stability Assay (monkey); details: monkey liver microsomes, with NADPH, 1.0 uM compound
Description: (§1) Stability of a compound was assessed in the presence of liver microsomes from various sources—mouse, rat, monkey and human liver microsomes. 1.0 uM compound, 0.4% DMSO in 0.1 M Potassium Phosphate with 1.0 mg/mL liver microsomes, were incubated at 37° C. with or without 1 mM NADPH. The samples were quenched at 0, and 30 minutes.

[2] = test system: IL-2-FL/Gaussia Luciferase; experiment: Dox Induced IL2-FL-Gluc Assay; format: cell-based; details: for IC50: 24 hr Dox induction, 293FRT/TO cells, read-out: 24 hr Dox Inducible IL2FLGluc 293FRT/TO: Mean IC50; for 24 hr Dox Inducible IL2FLGluc 293FRT/TO: IL2/PD1: ratio of IL2FLGluc IC50 to PD1ssGluc IC50
Outline: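 Stable Flp-In 293 T-REx cells carrying doxycycline-inducible full-length IL-2 (aa 1-153) fused to Gaussia luciferase, plated the day before assay. Compound dilutions added in medium containing doxycycline, incubated at 37 °C, 5% CO2. Undefined stereocentres mean data refer to stereoisomer mixtures.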

[3] = Liver Microsome Stability Assay (rat); details: rat liver microsomes, with NADPH, 1.0 uM compound
Description: as §1

[4] = Liver Microsome Stability Assay (mouse); details: mouse liver microsomes, with NADPH, 1.0 uM compound
Description: as §1

[5] = test system: HER3-ss+4aa/Gaussia Luciferase; experiment: Dox-Induced Her3-ss-Gluc Assay; format: cell-based; details: 24 hr Dox induction; 293FRT/TO cells; read-out: 24 hr Dox Inducible Her3(ss + 4)Gluc 293FRT/TO: Mean IC50
Outline: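 Stable Flp-In 293 T-REx cells carried a doxycycline-inducible HER3 signal sequence (+4 aa) fused to Gaussia luciferase. Cells were plated the day before the assay. Compound dilutions in DMSO/media containing doxycycline were then added, and plates were incubated at 37 °C, 5% CO2.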

[6] = test system: multiple myeloma cell line U266B1; experiment: U266 Cell Viability Assay; format: cell-based, human; details: Homo sapiens, U-266, 48 h, U266B1 cells, Celltiter-Glo
Outline: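 U266B1 multiple myeloma cells in RPMI 1640/10% FBS were treated with compound dilutions for 48 h at 37 °C, 5% CO2. Viability was measured by CellTiter-Glo luminescence; compounds drawn without stereochemistry were tested as stereoisomer mixtures.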

[7] = test system: PD1-ss+10aa/Gaussia Luciferase; experiment: Dox-Induced PD1-ss-Gluc Assay; format: cell-based; details: 24 hr Dox induction; 293FRT/TO cells; read-out: 24 hr Dox Inducible PD1ssGluc 293FRT/TO: Mean IC50
Outline: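 The cell line was made by transfecting Flp-In 293 T-REx cells with a PD1 signal sequence+10aa–Gaussia luciferase fusion under T-REx control and selecting with hygromycin and blasticidin. Cells were seeded, and next day compound plus doxycycline was added at 37 °C, 5% CO2.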

[8] = Liver Microsome Stability Assay (human); details: human liver microsomes, with NADPH, 1.0 uM compound
Description: as §1

[9] = test system: TNFα-FL/Gaussia Luciferase; experiment: Dox Induced TNFα-FL-Gluc Assay; format: cell-based; details: for IC50: 24 hr Dox induction, 293FRT/TO cells, read-out: 24 hr Dox Inducible TNFaFLGluc 293FRT/TO: Mean IC50; for 24 hr Dox Inducible TNFaFLGluc 293FRT/TO: TNF/PD1: ratio of TNFaFLGluc IC50 to PD1ssGluc IC50
Outline: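 Flp-In 293 T-REx cells stably carrying doxycycline-inducible full-length TNFα (aa 1-233) fused to Gaussia luciferase. Plated the day before, then treated with compound dilutions in doxycycline-containing medium at 37° C, 5% CO2.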

[10] = test system: multiple myeloma cell line NCI-H929; experiment: H929 Cell Viability Assay; format: cell-based, human; details: Homo sapiens, NCI-H929, 48 h, NCI-H929 cells, Celltiter-Glo
Outline: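 NCI-H929 cells in RPMI 1640 with 10% FBS were treated with compound dilutions for 48 h at 37° C, 5% CO2. Viability was read by CellTiter-Glo luminescence. Undefined stereocentres denote stereoisomer mixtures.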

Structure (SMILES) | Liver Microsome Stability (Multiple Species): Monkey - % Remaining after 30 min w/NADPH [1] | IC50 [2] | 24 hr Dox Inducible IL2FLGluc 293FRT/TO: IL2/PD1 [2] | Liver Microsome Stability (Multiple Species): Rat - % Remaining after 30 min w/NADPH [3] | Liver Microsome Stability (Multiple Species): Mouse - % Remaining after 30 min w/NADPH [4] | IC50 [5] | EC50 [6] | IC50 [7] | Liver Microsome Stability (Multiple Species): Human - % Remaining after 30 min w/NADPH [8] | IC50 [9] | 24 hr Dox Inducible TNFaFLGluc 293FRT/TO: TNF/PD1 [9] | EC50 [10]
CC(=O)N1CCC(Oc2ccc(N3CCC[C@@H]3c3csc(NC(=O)c4cccn4Cc4ccnc(F)c4)n3)c(C#N)c2)CC1 [Compound A133, (R)-N-(4-(1-(4-((1-acetylpiperidin-4-yl)oxy)-2-cyanophenyl)pyrrolidin-2-yl)thiazol-2-yl)-1-((2-fluoropyridin-4-yl)methyl)-1H-pyrrole-2-carboxamide] | 0.15% | 0.0817 µM | 1.3 | 1.42% | 0.98% | 0.0643 µM | > 25 µM | 0.061 µM | 0.61% | 0.893 µM | 14.6 | 2.01 µM
O=C(Nc1nc([C@H]2CCCN2c2ccc(OCCO)cc2)cs1)c1cccn1Cc1ccnc(F)c1 [Compound A134, (R)-1-((2-fluoropyridin-4-yl)methyl)-N-(4-(1-(4-(2-hydroxyethoxy)phenyl)pyrrolidin-2-yl)thiazol-2-yl)-1H-pyrrole-2-carboxamide] | 13.5% | 0.0424 µM | 1.6 | 13.6% | 2.18% | 0.0478 µM | > 25 µM | 0.0273 µM | 19.3% | 0.526 µM | 19.3 | 0.849 µM
NC(=O)N1CCC(Oc2ccc(N3CCC[C@@H]3c3csc(NC(=O)c4cccn4Cc4ccnc(F)c4)n3)cc2)CC1 [Compound A135, (R)-4-(4-(2-(2-(1-((2-fluoropyridin-4-yl)methyl)-1H-pyrrole-2-carboxamido)thiazol-4-yl)pyrrolidin-1-yl)phenoxy)piperidine-1-carboxamide] | 32.1% | 0.0525 µM | 3.4 | 57.9% | 56.5% | 0.0342 µM | > 25 µM | 0.0152 µM | 67.1% | 0.512 µM | 33.6 | 0.692 µM
CNC(=O)N1CCC(Oc2ccc(N3CCC[C@@H]3c3csc(NC(=O)c4cccn4Cc4ccnc(F)c4)n3)cc2)CC1 [Compound A136, (R)-4-(4-(2-(2-(1-((2-fluoropyridin-4-yl)methyl)-1H-pyrrole-2-carboxamido)thiazol-4-yl)pyrrolidin-1-yl)phenoxy)-N-methylpiperidine-1-carboxamide] | 0.44% | 0.186 µM | 3.1 | 15.7% | 2.63% | 0.0867 µM | > 25 µM | 0.0596 µM | 15.6% | 1.01 µM | 16.9 | 2.41 µM
CN(C)C(=O)N1CCC(Oc2ccc(N3CCC[C@@H]3c3csc(NC(=O)c4cccn4Cc4ccnc(F)c4)n3)cc2)CC1 [Compound A137, (R)-4-(4-(2-(2-(1-((2-fluoropyridin-4-yl)methyl)-1H-pyrrole-2-carboxamido)thiazol-4-yl)pyrrolidin-1-yl)phenoxy)-N,N-dimethylpiperidine-1-carboxamide] | 2.57% | 0.0614 µM | 1.9 | 24.2% | 1.78% | 0.0515 µM | > 25 µM | 0.0322 µM | 4.35% | 0.566 µM | 17.6 | 0.948 µM
O=C(Nc1nc([C@H]2CCCN2c2ccc(OC3CCS(=O)(=O)CC3)cc2)cs1)c1cccn1Cc1ccnc(F)c1 [Compound A138, (R)-N-(4-(1-(4-((1,1-dioxidotetrahydro-2H-thiopyran-4-yl)oxy)phenyl)pyrrolidin-2-yl)thiazol-2-yl)-1-((2-fluoropyridin-4-yl)methyl)-1H-pyrrole-2-carboxamide] | 6.25% | 0.172 µM | 1.4 | 37.2% | 25.2% | 0.167 µM | > 25 µM | 0.125 µM | 25.1% | 1.6 µM | 12.8 | 2.57 µM
O=C(Nc1nc([C@H]2CCCN2c2ccc(OC3CCN(C(=O)CO)CC3)cc2)cs1)c1cccn1Cc1ccnc(F)c1 [Compound A139, (R)-1-((2-fluoropyridin-4-yl)methyl)-N-(4-(1-(4-((1-(2-hydroxyacetyl)piperidin-4-yl)oxy)phenyl)pyrrolidin-2-yl)thiazol-2-yl)-1H-pyrrole-2-carboxamide] | 10.7% | 0.0583 µM | 2.9 | 41.9% | 26% | 0.0371 µM | > 25 µM | 0.0203 µM | 30.1% | 0.46 µM | 22.6 | 0.687 µM
CC(=O)N1CCC(Oc2ccc(N3CCC[C@@H]3c3csc(NC(=O)c4cccn4Cc4ccnc(F)c4)n3)cc2Cl)CC1 [Compound A140, (R)-N-(4-(1-(4-((1-acetylpiperidin-4-yl)oxy)-3-chlorophenyl)pyrrolidin-2-yl)thiazol-2-yl)-1-((2-fluoropyridin-4-yl)methyl)-1H-pyrrole-2-carboxamide] | 8.54% | 0.0337 µM | 2.4 | 12.8% | 16.1% | 0.00988 µM | > 25 µM | 0.0139 µM | 14% | 0.361 µM | 25.9 | 0.418 µM
O=C(CO)Nc1ccc(N2CCC[C@@H]2c2csc(NC(=O)c3cccn3Cc3ccnc(F)c3)n2)cc1 [Compound A141, (R)-1-((2-fluoropyridin-4-yl)methyl)-N-(4-(1-(4-(2-hydroxyacetamido)phenyl)pyrrolidin-2-yl)thiazol-2-yl)-1H-pyrrole-2-carboxamide] | 0.94% | 0.054 µM | 2 | 2.9% | 0.97% | 0.0439 µM | > 25 µM | 0.0275 µM | 2.77% | 0.497 µM | 18 | 0.921 µM

Reference: US20230286973A1, “PROTEIN SECRETION INHIBITORS” (KEZAR LIFE SCIENCES, priority 2020, published 2023)
